A melting point compilation (Tetko et al.; mined from patent text by program, amines drawn as free bases though some values may be those of a salt)

Compound `CSc1nc(NC2CCCCC2)c2nsnc2n1` has a melting point of 134 to 136 °C.
For `COc1ccc(C=CS(=O)(=O)Cl)cc1`, the melting point was 65 to 67 °C.
Work on `COP(=O)(OC)c1cc(Oc2c(Cl)cc(C(F)(F)F)cc2Cl)ccc1[N+](=O)[O-]` yielded a melting point of 106 to 107 °C.
With `COc1cc2c(cc1-c1cccnc1)-c1c(Br)c3c(n1CC2)C(=O)N(C(C)(C)C)CCC3` the melting point was 184 to 186 °C.
With `O=C(c1cccc(F)c1)N1CC2CC2(c2ccc(Cl)cc2)C1` (configuration not stated) the melting point was 70 to 73 °C.
With `O=C(O)c1cnc2cc(OCc3ccccc3)c(OCc3ccccc3)cn2c1=O` the melting point was 208 °C.
Work on `Nc1ccnc(C(F)(F)F)c1` yielded a melting point of 56 to 58 °C.
`CC1(C)CN=C2N(C1)c1ccc(Br)cc1C21OCCCO1` showed a melting point of 151 to 153 °C.
`Cc1c(Cc2ccccc2)c(=O)oc2cc(OCC(=N)NO)cc(OCC(=N)NO)c12` showed a melting point of 155 to 160 °C.
In the case of `CCCC(=O)NCCC1CCc2c(OC)ccc3ccc(OC)c1c23` (configuration not stated), the melting point is reported as 99 °C.
For `Oc1ccc(N2CCN(c3ccc(C(F)(F)F)cn3)CC2)cc1`, the melting point was 178 to 179 °C.
Work on `Cc1cnc2nc(C(F)(F)F)n(C)c2c1` yielded a melting point of 100 °C.
In the case of `CC(=O)C1(OC(=O)CCl)CCC2C3CCC4=CC(=O)CCC4(C)C3CCC21C` (configuration not stated), the melting point is reported as 134 to 135 °C.
In the case of `CC(C)Nc1c(-c2c(F)cc(F)cc2F)c(F)nc2nccnc12`, the melting point is reported as 127 to 128 °C.
`C=CC[C@H](C(N)=O)[C@@H](CC(C)C)C(=O)NC1N=C(c2ccccc2)c2cc(OC)ccc2N(C)C1=O` (some centres not stated) showed a melting point of 244 to 255 °C.
Compound `C[C@H]1[C@H](NC(=O)OC(C)(C)C)C(=O)N1OCC(=O)OCc1ccc([N+](=O)[O-])cc1` has a melting point of 71 to 75 °C.
With `CC(C)C[C@H](OC(=O)NC1CCCCC1)C(=O)OCc1ccccc1` the melting point was 89 to 90 °C.
In the case of `Cc1cc(C)nc(-c2ncc([N+](=O)[O-])n2C)n1`, the melting point is reported as 148 to 150 °C.
Compound `CNc1cn(-c2cncc(F)c2)nc1C` has a melting point of 142 to 144 °C.
`C=CCn1c(C)c(C)c2cnnc(OCc3ccccc3)c21` showed a melting point of 115 to 116 °C.
With `N=C1NC(=O)C(c2ccccc2)S1` (configuration not stated) the melting point was 249 to 252 °C.
Work on `COc1ccnc(CCc2nc3cc(-c4ccc(C#N)cc4)cnc3[nH]2)c1` yielded a melting point of 241 to 242 °C.
Work on `O=C(c1ccc(I)cc1)c1ccc(-c2ccc(Cl)cc2)cc1` yielded a melting point of 218 °C.
With `CCN1C(=O)NC(Cc2c[nH]c3ccccc23)C1=O` (configuration not stated) the melting point was 167 to 170 °C.
With `CC(C)(C)CC(C)(C)Nc1nc(Cl)nc(N2CC3CCC(CC3)C2)n1` the melting point was 159 to 162 °C.
`CC(C)(C)c1ccc(/C=N/OCCOc2ccc(C(=O)O)c(OC(=O)c3ccc(C(C)(C)C)cc3)c2)cc1` gave a melting point of 148 to 150 °C.
`O=C1CCC(c2ccc(CCCCNC(=O)c3cccnc3)cc2)=NN1` showed a melting point of 178 to 179 °C.
In the case of `Fc1ccc(-c2nc3occn3c2-c2ccnc(N[C@H]3CN4CCC3CC4)n2)cc1`, the melting point is reported as 217 to 218 °C.
With `CCCc1nc2c(c(C)c(C)n3nnnc23)n1CC(C)(C)NC(=O)NC1CCCCC1` the melting point was 196 to 198 °C.
Work on `CCOC(=O)COc1ccc2cc(Br)ccc2c1Br` yielded a melting point of 104 to 106 °C.
`CC(C)c1ccc(-n2nc(C(F)(F)F)cc2-c2ccc(S(C)(=O)=O)cc2)cc1` showed a melting point of 144 to 146 °C.
For `N#CC1=C(c2ccc(Cl)cc2)NC(C(F)(F)F)C1` (configuration not stated), the melting point was 158 to 160 °C.
`COC(=O)c1ccc(-c2ccc(-c3ccc4c(c3)C(C)(C)CCC4(C)C)n2C)cc1` gave a melting point of 104 to 105 °C.
Compound `NC(=O)N(O)Cc1cccc(C(O)C#Cc2cccnc2)c1` (configuration not stated) has a melting point of 153 °C.
`Cc1cccc(C2=NN=C(c3ccccc3Cc3ccccc3)NN2)c1` showed a melting point of 162 to 163 °C.
In the case of `CON=C(C(=O)OC)c1ccccc1-c1nnc(-c2cccc(C)c2)o1`, the melting point is reported as 166 to 167 °C.
For `O=C1CCc2cc(Oc3ccccc3)ccc21`, the melting point was 92 to 93 °C.
Work on `N[C@@H](Cc1cn(Cc2ccccc2)cn1)C(=O)O` yielded a melting point of 234 to 238 °C.
With `Cc1c(-c2ccccc2)sc2nc(NC3CCCCC3)[nH]c(=O)c12` the melting point was 265 to 270 °C.
`O=C(Cl)CN1C(=O)c2ccc([N+](=O)[O-])cc2C1=O` gave a melting point of 129 to 130 °C.
In the case of `COC(=O)CCCNC1(c2ccccc2Cl)C(=O)Nc2ccc(Cl)cc21` (configuration not stated), the melting point is reported as 142 °C.
For `CSc1ccc(Oc2cccc(C=O)n2)cc1`, the melting point was 60 to 63 °C.
Work on `Cc1oc(=O)oc1Cn1nnc(-c2ccnc(-c3nnn(Cc4oc(=O)oc4C)n3)c2)n1` yielded a melting point of 150 to 152 °C.
`CCNc1nc(NCc2ccc(NC(=O)C3CCN(Cc4ccccc4)CC3)cc2)c2ccc(C)cc2n1` showed a melting point of 55 °C.
For `O=C1CC(c2cccc(-n3cnnc3)c2)=Nc2ccc(-c3ccccc3F)cc2N1`, the melting point was 198 °C.
With `CCCCc1nn(Cc2ccccc2C(=O)OC)c(=O)n1Cc1ccc(-c2ccccc2-c2nnn[nH]2)cc1` the melting point was 79 to 80 °C.
Work on `COc1cccc(CCC(=O)CCCCCC(=O)O)c1` yielded a melting point of 41 to 43 °C.
Compound `CC(C)(C)c1ccc(N(Cc2cccc3ccccc23)c2ccccc2)cc1` has a melting point of 135 to 137 °C.
Compound `COc1ccc(C2COc3c(ccc(O)c3C)C2)cc1` (configuration not stated) has a melting point of 140 to 141 °C.
With `NCCC(O)(c1ccc(Cl)cc1)c1ccc(-c2ccc(Cl)cc2)cc1` (configuration not stated) the melting point was 131 to 132 °C.
`O=C(O)CN1CC(=O)N(Cc2ccc(Cl)c([N+](=O)[O-])c2)C1=O` showed a melting point of 167 to 168 °C.
Compound `CCOC(=O)C1=C(C)NC2=C(C(=O)OC2)C1c1cccc2ncc(-c3ccccc3)cc12` (configuration not stated) has a melting point of 257 to 260 °C.
`CC(C)C1N(C)CCCN1C(=O)NC(C)C1CC(N=C=O)CC(C)(C)C1` (configuration not stated) gave a melting point of 180 to 192 °C.
`Cc1ccc(S(=O)(=O)NCCO)c(C)c1` gave a melting point of 70 to 72 °C.
Work on `COc1ccc(Br)cc1CC1CCCn2c1nc(-c1ccncn1)cc2=O` (racemic) yielded a melting point of 178 to 180 °C.
`COc1ccc(CSc2nnc(-c3ccnc(N)c3)o2)cc1F` gave a melting point of 166 to 167 °C.
Compound `CCCCCCC(=O)N1C(C)Cc2ccccc2C1CNC(=O)c1cc(OC)c(OC)c(OC)c1` (configuration not stated) has a melting point of 161 to 163 °C.
In the case of `CC(O)(c1cccc(Cl)c1)c1cc(Cl)ccc1O` (configuration not stated), the melting point is reported as 125 °C.
In the case of `CN(CCN1CCOCC1)C(=O)c1ccc(COc2cccc3c2CN(C2CCC(=O)NC2=O)C3=O)cc1` (configuration not stated), the melting point is reported as 120 to 122 °C.
For `CC(C)(Cc1cccc(C(=O)c2cccc(CC(C)(C)C(=O)O)c2)c1)C(=O)O`, the melting point was 46 to 48 °C.
`CC(C)OC(=O)c1cc2c(cn1)[nH]c1cccc(Oc3ccc(Cl)cc3)c12` showed a melting point of 273 to 274 °C.
For `O=C1C(=Cc2ccc([N+](=O)[O-])s2)CCc2cc(OCCn3ccnc3)ccc21`, the melting point was > 240 °C.
In the case of `CSc1sc(-c2nccs2)c2c1-c1oncc1CC2`, the melting point is reported as 165 to 168 °C.
`CC(=O)N1CC(=Cc2ccncc2)C(=O)c2ccccc21` showed a melting point of 170 °C.
`O=C(NCc1cc(C(F)(F)F)cc(C(F)(F)F)c1)c1cnc(Cl)nc1Cl` gave a melting point of 144 to 145 °C.
In the case of `COc1ccc(CN2CCN(NC(=O)c3cc(Cl)c(N)cc3OC)CC2)cc1`, the melting point is reported as 154 to 156 °C.
With `CCn1cc(C(=O)O)c(=O)c2cnc(N3CCN(Cc4ccc([N+](=O)[O-])cc4)CC3)nc21` the melting point was 259 to 261 °C.
For `c1ccc(CN2CCc3[nH]c4c(-c5ccccc5)cccc4c3CC2)cc1`, the melting point was 78 to 79 °C.
`CCCCNC(=O)[C@@H]1C[C@]2(NC(=O)N(CCCCl)C2=O)c2cc(F)ccc2O1` showed a melting point of 148 to 150 °C.
`Cc1ccc(O)c(Cn2ccnc2)n1` gave a melting point of 153 to 155 °C.
`O=c1[nH]c2cscc2c(=O)n1CCN1CCN(c2cccc(Cl)c2)CC1` showed a melting point of 207 to 208 °C.
Work on `C[C@@H]1CN(c2c(C=O)cc(Br)c(F)c2F)C[C@H](C)O1` yielded a melting point of 88.1 to 92 °C.
